Consider 29 molecules from patent publication US11040981B2, “Pyrrolotriazine compounds and methods of inhibiting TAM kinases” (Syros Pharmaceuticals, Inc., priority 2017, dated 2021).

Where a name gives a salt, the structure may show the parent alone. Bounds are passed on as bounds.

The target in one assay is T1, FLT3 (Homo sapiens, UniProt P36888).
T1 sequence (P36888 27-993): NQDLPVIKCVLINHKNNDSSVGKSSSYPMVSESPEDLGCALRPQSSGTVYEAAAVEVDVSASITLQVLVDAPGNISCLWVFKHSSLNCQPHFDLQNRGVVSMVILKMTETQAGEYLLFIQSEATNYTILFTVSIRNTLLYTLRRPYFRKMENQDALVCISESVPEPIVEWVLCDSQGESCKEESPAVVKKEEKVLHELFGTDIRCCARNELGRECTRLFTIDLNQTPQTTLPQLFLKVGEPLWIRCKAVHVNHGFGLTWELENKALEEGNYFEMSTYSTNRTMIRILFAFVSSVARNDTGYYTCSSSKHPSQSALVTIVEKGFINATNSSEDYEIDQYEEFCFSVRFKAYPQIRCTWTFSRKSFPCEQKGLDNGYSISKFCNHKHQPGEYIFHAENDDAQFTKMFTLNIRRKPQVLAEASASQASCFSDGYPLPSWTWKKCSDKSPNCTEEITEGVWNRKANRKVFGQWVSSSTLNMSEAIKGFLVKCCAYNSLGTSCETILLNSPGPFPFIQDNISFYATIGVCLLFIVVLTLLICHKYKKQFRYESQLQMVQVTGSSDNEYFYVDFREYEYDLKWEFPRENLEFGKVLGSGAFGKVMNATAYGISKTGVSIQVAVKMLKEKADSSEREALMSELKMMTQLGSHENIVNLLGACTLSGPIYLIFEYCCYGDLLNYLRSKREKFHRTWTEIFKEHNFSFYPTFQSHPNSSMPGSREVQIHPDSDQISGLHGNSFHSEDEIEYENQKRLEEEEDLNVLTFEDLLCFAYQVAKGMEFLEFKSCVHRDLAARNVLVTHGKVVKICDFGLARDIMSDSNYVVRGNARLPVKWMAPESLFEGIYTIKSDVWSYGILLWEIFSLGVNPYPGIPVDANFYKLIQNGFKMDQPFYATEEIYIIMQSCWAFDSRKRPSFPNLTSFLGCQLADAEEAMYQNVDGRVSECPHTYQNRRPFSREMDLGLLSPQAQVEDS
Kind of assay: TR-FRET kinase activity assay, FLT3. The assay is classed as biochemical. To be noted: ATP at Km, 60 minutes. An outline of the steps:
(§1)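 Enzyme, fluorescent peptide substrate and compound were mixed, and the reaction was started with ATP at each kinase's Km, in 50 mM HEPES pH 7.5, 10 mM MgCl2, 1 mM EGTA, 0.01% Brij 35, 1 mM DTT at RT. After 60 minutes EDTA quench, Eu-labelled phospho-specific antibody was added for 30 minutes, and IC50 was derived from TR-FRET signal loss.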

The target in another assay is T2, TYRO3 (Homo sapiens, UniProt Q06418).
T2 sequence (Q06418 41-890): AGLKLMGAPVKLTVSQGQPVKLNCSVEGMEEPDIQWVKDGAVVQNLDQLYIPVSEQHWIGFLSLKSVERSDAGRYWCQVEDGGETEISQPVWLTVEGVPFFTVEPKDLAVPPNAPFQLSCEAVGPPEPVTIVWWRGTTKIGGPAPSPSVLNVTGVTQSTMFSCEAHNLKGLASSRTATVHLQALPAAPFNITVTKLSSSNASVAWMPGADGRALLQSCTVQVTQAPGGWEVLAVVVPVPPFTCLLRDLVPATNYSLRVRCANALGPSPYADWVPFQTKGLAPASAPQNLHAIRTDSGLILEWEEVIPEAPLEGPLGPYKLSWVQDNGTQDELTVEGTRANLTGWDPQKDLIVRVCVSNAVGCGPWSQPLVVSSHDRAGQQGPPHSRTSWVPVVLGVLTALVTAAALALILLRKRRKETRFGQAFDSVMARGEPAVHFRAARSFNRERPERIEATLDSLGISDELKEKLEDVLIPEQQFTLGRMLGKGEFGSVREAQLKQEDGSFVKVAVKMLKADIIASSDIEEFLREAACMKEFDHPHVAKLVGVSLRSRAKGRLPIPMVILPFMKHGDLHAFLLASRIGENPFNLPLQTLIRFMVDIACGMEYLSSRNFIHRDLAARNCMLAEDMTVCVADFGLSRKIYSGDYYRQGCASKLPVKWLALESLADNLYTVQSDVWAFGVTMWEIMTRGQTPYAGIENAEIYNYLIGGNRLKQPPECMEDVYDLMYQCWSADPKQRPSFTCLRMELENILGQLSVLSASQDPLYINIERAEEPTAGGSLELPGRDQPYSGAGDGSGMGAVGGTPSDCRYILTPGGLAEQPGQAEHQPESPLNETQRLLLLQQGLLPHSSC
The assay is described as follows: TR-FRET kinase activity assay, TYRO3. The assay is classed as biochemical. To be noted: ATP at Km, 60 minutes. An outline of the steps:
as §1

Consider `CNc1c(N[C@H]2CC[C@H](c3cc(-c4ccc(CN5CCOCC5)cc4)c4cnc(N[C@@H](C)COC)nn43)CC2)c(=O)c1=O` [Compound 316, 3-(((trans)-4-(2-(((S)-1-methoxypropan-2-yl)amino)-5-(4-(morpholinomethyl)phenyl)pyrrolo[2,1-f][1,2,4]triazin-7-yl)cyclohexyl)amino)-4-(methylamino)cyclobut-3-ene-1,2-dione], for which the half-maximal inhibitory concentration (IC50) at FLT3 and on TYRO3 was at most 100 nM throughout.
Consider `Cc1nnc(Cn2cc(-c3cc([C@H]4CC[C@H](O)CC4)n4nc(N[C@@H](C)CC(F)(F)F)ncc34)cn2)o1` [Compound 296], for which the 50% inhibitory concentration (IC50) against FLT3 and at TYRO3 was at most 100 nM each time.
As for `COC[C@H](C)Nc1ncc2c(-c3cnn(C4CC(C(=O)OC)C4)c3)cc([C@H]3CC[C@H](O)CC3)n2n1` (stereo partly shown) [Compound 330], the half-maximal inhibitory concentration (IC50) (as a rule, the point on the concentration scale where inhibition reaches its midpoint) is 100 to 1000 nM at FLT3 and at most 100 nM at TYRO3.
The corresponding values for `C[C@@H](CC(F)(F)F)Nc1ncc2c(-c3cncc(C(=O)N4CCOCC4)c3)cc([C@H]3CC[C@H](O)CC3)n2n1` [Compound 311] are 100 to 1000 nM and at most 100 nM.
As to `COC[C@H](C)Nc1ncc2c(-c3cnn(C4CN(C(C)=O)C4)c3)cc([C@H]3CC[C@H](O)CC3)n2n1` [Compound 286], the half-maximal inhibitory concentration (IC50) against FLT3 and on TYRO3 was at most 100 nM each time.
Turning to `C[C@@H](CC(F)(F)F)Nc1ncc2c(-c3cncc(C(=O)O)c3)cc([C@H]3CC[C@H](O)CC3)n2n1` [Compound 298], the figures for the half-inhibitory concentration (IC50) against FLT3 and against TYRO3 were 1000 to 10000 nM and at most 100 nM, respectively.
The corresponding values for `COC[C@H](C)Nc1ncc2c(-c3cnn(Cc4cn[nH]c4)c3)cc([C@H]3CC[C@H](O)CC3)n2n1` [Compound 332] are 100 to 1000 nM and at most 100 nM.
For the molecule `CC(CC(F)(F)F)Nc1ncc2c(-c3cnc(C(=O)O)nc3)cc(C3CCC(O)CC3)n2n1` (stereo not shown) [Compound 299], the half-inhibitory concentration (IC50) against FLT3 was 1000 to 10000 nM; on TYRO3 it was at most 100 nM.
For `COC[C@H](C)Nc1ncc2c(-c3cnn(CCS(C)(=O)=O)c3)cc([C@H]3CC[C@H](O)CC3)n2n1` [Compound 280] the same measures were 100 to 1000 nM and at most 100 nM.
For `CC(CC(F)(F)F)Nc1ncc2c(-c3cncc(S(C)(=O)=O)c3)cc(C3CCC(O)CC3)n2n1` (stereo not shown) [Compound 273] the same measures were 100 to 1000 nM and at most 100 nM.
The corresponding values for `COC[C@H](C)Nc1ncc2c(-c3ccc(CN4CCOCC4)cc3)cc([C@H]3CC[C@H](NS(C)(=O)=O)CC3)n2n1` [Compound 301] are at most 100 nM and at most 100 nM.
For the molecule `CNS(=O)(=O)c1cncc(-c2cc([C@H]3CC[C@H](O)CC3)n3nc(N[C@@H](C)CC(F)(F)F)ncc23)c1` [Compound 278], the IC50 is 100 to 1000 nM against FLT3 and at most 100 nM against TYRO3.
On to `COC[C@H](C)Nc1ncc2c(-c3cnn(C(C)(C)C(=O)N4CC5(COC5)C4)c3)cc([C@H]3CC[C@H](O)CC3)n2n1` [Compound 326], for which the IC50 on FLT3 is 1000 to 10000 nM; against TYRO3, at most 100 nM.
The corresponding values for `COCCn1cc(-c2cc([C@H]3CC[C@H](O)CC3)n3nc(N[C@@H](C)COC(F)F)ncc23)cn1` [Compound 274] are at most 100 nM and at most 100 nM.
For `COC[C@H](C)Nc1ncc2c(-c3cnn(Cc4cnc(C)cn4)c3)cc([C@H]3CC[C@H](O)CC3)n2n1` [Compound 306] the same measures were 100 to 1000 nM and at most 100 nM.
The corresponding values for `C[C@@H](CC(F)(F)F)Nc1ncc2c(-c3ccc(S(C)(=O)=O)nc3)cc([C@H]3CC[C@H](O)CC3)n2n1` [Compound 297] are at most 100 nM and at most 100 nM.
For `Cc1ccc(-c2cc([C@H]3CC[C@H](O)CC3)n3nc(N[C@@H](C)COC(F)F)ncc23)cn1` [Compound 321], the IC50 against FLT3 and at TYRO3 was at most 100 nM each time.
As to `CCCCC[C@H](C)Nc1ncc2c(N3CCNCC3)cc([C@H]3CC[C@H](O)CC3)n2n1` [Compound 114], the IC50 at FLT3 was 100 to 1000 nM; against TYRO3, at most 100 nM.
The corresponding values for `COC[C@H](C)Nc1ncc2c(-c3cnn(C4CN(C(=O)C5COC5)C4)c3)cc([C@H]3CC[C@H](O)CC3)n2n1` [Compound 293] are 100 to 1000 nM and at most 100 nM.
The corresponding values for `COC[C@H](C)Nc1ncc2c(-c3cnn(Cc4nc(C)no4)c3)cc([C@H]3CC[C@H](O)CC3)n2n1` [Compound 292] are 100 to 1000 nM and at most 100 nM.
As to `CCCCC[C@H](C)Nc1ncc2c(C3CCNCC3)cc([C@H]3CC[C@H](O)CC3)n2n1` [Compound 116, (1S,4r)-4-(2-((S)-heptan-2-ylamino)-5-(piperidin-4-yl)pyrrolo[2,1-f][1,2,4]triazin-7-yl)cyclohexanol hydrochloride], the IC50 on FLT3 was 100 to 1000 nM; against TYRO3 it was at most 100 nM.
Turning to `COC[C@H](C)Nc1ncc2c(-c3cnn(C4CN(CCC(F)(F)F)C4)c3)cc([C@H]3CC[C@H](O)CC3)n2n1` [Compound 291], the half-inhibitory concentration (IC50) against FLT3 is 100 to 1000 nM; on TYRO3, at most 100 nM.
The corresponding values for `COC[C@H](C)Nc1ncc2c(-c3cnn(C4CN(C(=O)C5(C(F)(F)F)CC5)C4)c3)cc([C@H]3CC[C@H](O)CC3)n2n1` [Compound 294] are at most 100 nM and at most 100 nM.
For `CNC(=NC#N)N[C@H]1CC[C@H](c2cc(-c3ccc(CN4CCOCC4)cc3)c3cnc(N[C@@H](C)COC)nn32)CC1` [Compound 307] the same measures were at most 100 nM and at most 100 nM.
In the case of `COC[C@H](C)Nc1ncc2c(-c3ccnc(C)c3)cc(C3CCC4(CC3)NC(=O)NC4=O)n2n1` (mixture of isomers) [Compound 325, (S)-8-(2-((1-methoxypropan-2-yl)amino)-5-(2-methylpyridin-4-yl)pyrrolo[2,1-f][1,2,4]triazin-7-yl)-1,3-diazaspiro[4.5]decane-2,4-dione], the half-inhibitory concentration (IC50) is 1000 to 10000 nM on FLT3 and at most 100 nM at TYRO3.
The corresponding values for `CNC(=O)C(C)(C)n1cc(-c2cc([C@H]3CC[C@H](O)CC3)n3nc(N[C@@H](C)COC)ncc23)cn1` [Compound 295] are 1000 to 10000 nM and at most 100 nM.
The corresponding values for `COC[C@H](C)Nc1ncc2c(-c3cnn(C[C@H]4CCC(=O)N4)c3)cc([C@H]3CC[C@H](O)CC3)n2n1` [Compound 324] are 100 to 1000 nM and at most 100 nM.
For `CCCCC[C@H](C)Nc1ncc2c(N3CCC(N(C)C)CC3)cc(C3CCC(O)CC3)n2n1.Cl` (stereo partly drawn) [Compound 115, 4-[5-[4-(dimethylamino)-1-piperidyl]-2-[[(1S)-1-methylhexyl]amino]pyrrolo[2,1-f][1,2,4]triazin-7-yl]cyclohexanol hydrochloride] the same measures were 1000 to 10000 nM and 100 to 1000 nM.
Regarding `COC[C@H](C)Nc1ncc2c(-c3cnn(C(C)(C)C(=O)N4CCS(=O)(=O)CC4)c3)cc([C@H]3CC[C@H](O)CC3)n2n1` [Compound 331, 1-(1,1-dioxidothiomorpholino)-2-(4-(7-((trans)-4-hydroxycyclohexyl)-2-(((S)-1-methoxypropan-2-yl)amino)pyrrolo[2,1-f][1,2,4]triazin-5-yl)-1H-pyrazol-1-yl)-2-methylpropan-1-one], the values for the IC50 on FLT3 and at TYRO3 were 100 to 1000 nM and at most 100 nM, respectively.
